# Laboratory results from patent US20260325487A1 (BS BIOTECHNA SPOLKA AKCYJNA, priority 2023, published 2026).
# Like-named read-outs stand apart in the source and are kept apart here.
# Experiments:
# Format in all cases: cell-based
# [1] = system: LUDLU-1; assay: SRB anti-proliferative assay, LUDLU-1, with CalcuSyn combination index (Example 1); settings: Homo sapiens, LUDLU-1, 72 h, read-out: Zah. (inhibition of proliferation)
# Experimental: (§1) Cells were thawed from ampoules stored in liquid nitrogen and cultured in petri dishes in appropriate culture medium according to Table 2, in a humidified 5% CO2 atmosphere at 37° C. Cells were passaged twice weekly using EDTA-Trypsin solution, pH 8. Counted cells with a viability of at least 90% as assessed with Trypan-Blue solution were used for anti-proliferative assays.
# (§2) Twenty-four hours before the addition of the test compounds/combinations, cells were seeded into 384-well plates at 50 μL/well and a density of 10^3 cells/well, in the appropriate culture medium.
# (§3) Solutions of the compounds were diluted in the test medium-RPMI-1640 and Opti-MEM in a 1:1 ratio, and the medium was supplemented with 2 mM glutamine and 5% fetal bovine serum FBS. After 72 h, colourimetric assessment of cell growth was performed by SRB. […] Unbound dye was removed by washing the plates (4×) in 1% (v/v) acetic acid, and protein-bound dye was extracted with 10 mM unbuffered Tris base and the optical density (A=540 nm) was determined in a BioTek Synergy H4 Hybrid computer microplate reader (BioTek Instruments USA). The entire washing/staining procedure was performed using a BioTek EL406 washing station (BioTek Instruments USA). The raw absorbance results were analysed in Microsoft Excel software using the formula:
# (§4) [formula] • Where: • % Zahlnh-inhibition of proliferation • Am—absorbance of wells without cells (medium) • Ak—absorbance of control wells (cells treated with pure culture medium) • Ap—absorbance of wells treated with compounds
# (§5) Each compound at the indicated concentrations was tested in triplicate in one experiment. Each experiment was repeated three times. Data analysis was supplemented with synergy assessment using CalcuSyn software. […] A CI value below 0.8 indicates synergism, 0.8-1.2 an additive effect, above 1.2 an antagonism.
# [2] = system: A375; assay: SRB anti-proliferative assay, A375, with CalcuSyn combination index (Example 1); settings: Homo sapiens, A-375, 72 h, read-out: Zah. (inhibition of proliferation)
# Experimental: as §1, §2, §3, §4, §5
# [3] = system: 8MGBA; assay: SRB anti-proliferative assay, 8MGBA, molecular combination and nanoparticles, with combination index (Example III); settings: Homo sapiens, 8-MG-BA, 72 h
# Experimental: (§6) Cells were thawed from ampoules stored in liquid nitrogen and cultured in petri dishes in the appropriate culture medium according to Table 16, in a humidified 5% CO2 atmosphere at 37° C. Cells were passaged twice weekly using EDTA-Trypsin solution, pH 8, as a separating agent. Counted cells with a viability of at least 90% as assessed with Trypan-Blue solution were used for anti-proliferation assays.
# (§7) Twenty-four hours before the addition of the test compounds/combinations, cells were seeded into 384-well plates at 50 μL/well and a density of 10^3 cells/well, in the appropriate culture medium. […] Solutions of the compounds were diluted in the test medium—RPMI-1640 and Opti-MEM in a 1:1 ratio, and the medium was supplemented with 2 mM glutamine and 5% fetal bovine serum FBS.
# (§8) After 72 h, colourimetric assessment of cell growth was performed by SRB. […] Unbound dye was removed by washing the plates (4×) in 1% (v/v) acetic acid, and protein-bound dye was extracted with 10 mM unbuffered Tris base and the optical density (A=540 nm) was determined in a BioTek Synergy H4 Hybrid computer microplate reader (BioTek Instruments USA). The entire washing/staining procedure was performed using a BioTek EL406 washing station (BioTek Instruments USA). The raw absorbance results were analysed in Microsoft Excel software using the formula:
# as §4, §5
# [4] = system: LN229; assay: SRB anti-proliferative assay, LN229, molecular combination and nanoparticles, with combination index (Example III); settings: Homo sapiens
# Experimental: as §6, §7, §8, §4, §5
# [5] = system: NCI-H226; assay: SRB anti-proliferative assay, NCI-H226, molecular combination and nanoparticles, with combination index (Example III); settings: Homo sapiens
# Experimental: as §6, §7, §8, §4, §5
# [6] = LN-229, 72 h, read-out: Zah. (inhibition of proliferation)
# [7] = LN-229, read-out: Zah. (inhibition of cell proliferation)
structure (smiles),measurement,setting,value
"C=CCNC1=C2C[C@@H](C)C[C@H](OC)[C@H](O)[C@@H](C)/C=C(\C)[C@H](OC(N)=O)[C@@H](OC)/C=C\C=C(/C)C(=O)NC(=CC1=O)C2=O [17AAG, 17-AAG (tanespimycin)]",inhibition at 0.0031 µM,[1],6.1%
same,inhibition at 0.01 µM,[1],20.4%
same,inhibition at 0.0314 µM,[1],47.8%
same,inhibition at 0.1 µM,[1],66.9%
same,inhibition at 0.3139 µM,[1],74.1%
same,inhibition at 1 µM,[1],78.6%
same,inhibition at 3.1546 µM,[1],83.3%
same,inhibition at 10 µM,[1],86.3%
same,inhibition at 0.0031 µM,[2],24.1%
same,inhibition at 0.01 µM,[2],53.3%
same,inhibition at 0.0314 µM,[2],83.2%
same,inhibition at 0.1 µM,[2],89.2%
same,inhibition at 0.3155 µM,[2],91.6%
same,inhibition at 1 µM,[2],96.3%
same,inhibition at 3.1546 µM,[2],97.1%
same,inhibition at 10 µM,[2],97%
same,inhibition at 0.0003163 µM,"[3]; read-out: Zah. (inhibition of proliferation), 17AAG 0.3163 nM, Tables 18a/19a",-3.9%
same,inhibition at 0.0003163 µM,"[3]; read-out: Zah. (inhibition of proliferation), 17AAG 0.3163 nM, Tables 21a/22a",6%
same,inhibition at 0.001 µM,"[3]; read-out: Zah. (inhibition of proliferation), 17AAG 1 nM, Tables 18a/19a",9.8%
same,inhibition at 0.001 µM,"[3]; read-out: Zah. (inhibition of proliferation), 17AAG 1 nM, Tables 21a/22a",15.7%
same,inhibition at 0.0032 µM,"[3]; read-out: Zah. (inhibition of proliferation), 17AAG 3.2 nM, Tables 18a/19a",64.9%
same,inhibition at 0.0032 µM,"[3]; read-out: Zah. (inhibition of proliferation), 17AAG 3.2 nM, Tables 21a/22a",4.7%
same,inhibition at 0.01 µM,"[3]; read-out: Zah. (inhibition of proliferation), 17AAG 10 nM, Tables 18a/19a",89.5%
same,inhibition at 0.01 µM,"[3]; read-out: Zah. (inhibition of proliferation), 17AAG 10 nM, Tables 21a/22a",7.8%
same,inhibition at 0.0316 µM,"[3]; read-out: Zah. (inhibition of proliferation), 17AAG 31.6 nM, Tables 18a/19a",88.5%
same,inhibition at 0.0316 µM,"[3]; read-out: Zah. (inhibition of proliferation), 17AAG 31.6 nM, Tables 21a/22a",20.1%
same,inhibition at 0.1 µM,"[3]; read-out: Zah. (inhibition of proliferation), 17AAG 100 nM, Tables 18a/19a",84.3%
same,inhibition at 0.1 µM,"[3]; read-out: Zah. (inhibition of proliferation), 17AAG 100 nM, Tables 21a/22a",37.4%
same,inhibition at 0.3163 µM,"[3]; read-out: Zah. (inhibition of proliferation), 17AAG 316.3 nM, Tables 18a/19a",86%
same,inhibition at 0.3163 µM,"[3]; read-out: Zah. (inhibition of proliferation), 17AAG 316.3 nM, Tables 21a/22a",64.6%
same,inhibition at 1 µM,"[3]; read-out: Zah. (inhibition of proliferation), 17AAG 1000 nM, Tables 18a/19a",91.9%
same,inhibition at 1 µM,"[3]; read-out: Zah. (inhibition of proliferation), 17AAG 1000 nM, Tables 21a/22a",81.1%
same,inhibition at 0.0003163 µM,"[3]; read-out: Zah. (inhibition of proliferation), 72 h, 17AAG 0.3163 nM",-3.9%
same,inhibition at 0.001 µM,"[3]; read-out: Zah. (inhibition of proliferation), 72 h, 17AAG 1 nM",9.8%
same,inhibition at 0.0032 µM,"[3]; read-out: Zah. (inhibition of proliferation), 72 h, 17AAG 3.2 nM",64.9%
same,inhibition at 0.01 µM,"[3]; read-out: Zah. (inhibition of proliferation), 72 h, 17AAG 10 nM",89.5%
same,inhibition at 0.0316 µM,"[3]; read-out: Zah. (inhibition of proliferation), 72 h, 17AAG 31.6 nM",88.5%
same,inhibition at 0.1 µM,"[3]; read-out: Zah. (inhibition of proliferation), 72 h, 17AAG 100 nM",84.3%
same,inhibition at 0.3163 µM,"[3]; read-out: Zah. (inhibition of proliferation), 72 h, 17AAG 316.3 nM",86%
same,inhibition at 1 µM,"[3]; read-out: Zah. (inhibition of proliferation), 72 h, 17AAG 1000 nM",91.9%
same,inhibition at 0.0032 µM,[4]; [6],3.3%
same,inhibition at 0.01 µM,[4]; [6],3.1%
same,inhibition at 0.0316 µM,[4]; [6],18.4%
same,inhibition at 0.1 µM,[4]; [6],28.9%
same,inhibition at 0.3163 µM,[4]; [6],38.7%
same,inhibition at 1 µM,[4]; [6],62.9%
same,inhibition at 3.1625 µM,[4]; [6],71.6%
same,inhibition at 10.0005 µM,[4]; [6],81.5%
same,inhibition at 0.0032 µM,[4]; [7],3.3%
same,inhibition at 0.01 µM,[4]; [7],3.1%
same,inhibition at 0.0316 µM,[4]; [7],18.4%
same,inhibition at 0.1 µM,[4]; [7],28.9%
same,inhibition at 0.3163 µM,[4]; [7],38.7%
same,inhibition at 1 µM,[4]; [7],62.9%
same,inhibition at 3.1625 µM,[4]; [7],71.6%
same,inhibition at 10.0005 µM,[4]; [7],81.5%
same,inhibition at 0.0032 µM,"[5]; NCI-H226, read-out: Inhibition of cell proliferation (Zah.), single agent, 3.2 nM",10.4%
same,inhibition at 0.01 µM,"[5]; NCI-H226, read-out: Inhibition of cell proliferation (Zah.), single agent, 10 nM",17.2%
same,inhibition at 0.0316 µM,"[5]; NCI-H226, read-out: Inhibition of cell proliferation (Zah.), single agent, 31.6 nM",29.4%
same,inhibition at 0.1 µM,"[5]; NCI-H226, read-out: Inhibition of cell proliferation (Zah.), single agent, 100 nM",51.4%
same,inhibition at 0.3163 µM,"[5]; NCI-H226, read-out: Inhibition of cell proliferation (Zah.), single agent, 316.3 nM",59.1%
same,inhibition at 1 µM,"[5]; NCI-H226, read-out: Inhibition of cell proliferation (Zah.), single agent, 1000 nM",65%
same,inhibition at 3.1625 µM,"[5]; NCI-H226, read-out: Inhibition of cell proliferation (Zah.), single agent, 3162.5 nM",69.5%
same,inhibition at 10.0005 µM,"[5]; NCI-H226, read-out: Inhibition of cell proliferation (Zah.), single agent, 10000.5 nM",68.4%
same,inhibition at 0.0032 µM,"[5]; NCI-H226, read-out: Zah. (inhibition of cell proliferation), NCI-H226 (Table 35a), compound alone, 3.2 nM",10.4%
same,inhibition at 0.01 µM,"[5]; NCI-H226, read-out: Zah. (inhibition of cell proliferation), NCI-H226 (Table 35a), compound alone, 10 nM",17.2%
same,inhibition at 0.0316 µM,"[5]; NCI-H226, read-out: Zah. (inhibition of cell proliferation), NCI-H226 (Table 35a), compound alone, 31.6 nM",29.4%
same,inhibition at 0.1 µM,"[5]; NCI-H226, read-out: Zah. (inhibition of cell proliferation), NCI-H226 (Table 35a), compound alone, 100 nM",51.4%
same,inhibition at 0.3163 µM,"[5]; NCI-H226, read-out: Zah. (inhibition of cell proliferation), NCI-H226 (Table 35a), compound alone, 316.3 nM",59.1%
same,inhibition at 1 µM,"[5]; NCI-H226, read-out: Zah. (inhibition of cell proliferation), NCI-H226 (Table 35a), compound alone, 1000 nM",65%
same,inhibition at 3.1625 µM,"[5]; NCI-H226, read-out: Zah. (inhibition of cell proliferation), NCI-H226 (Table 35a), compound alone, 3162.5 nM",69.5%
same,inhibition at 10.0005 µM,"[5]; NCI-H226, read-out: Zah. (inhibition of cell proliferation), NCI-H226 (Table 35a), compound alone, 10000.5 nM",68.4%
same,inhibition at 0.0032 µM,"[5]; NCI-H226, read-out: Zah. (inhibition of cell proliferation), NCI-H226, compound alone, 3.2 nM",-6.6%
same,inhibition at 0.01 µM,"[5]; NCI-H226, read-out: Zah. (inhibition of cell proliferation), NCI-H226, compound alone, 10 nM",-4.6%
same,inhibition at 0.0316 µM,"[5]; NCI-H226, read-out: Zah. (inhibition of cell proliferation), NCI-H226, compound alone, 31.6 nM",30.6%
same,inhibition at 0.1 µM,"[5]; NCI-H226, read-out: Zah. (inhibition of cell proliferation), NCI-H226, compound alone, 100 nM",44.7%
same,inhibition at 0.3163 µM,"[5]; NCI-H226, read-out: Zah. (inhibition of cell proliferation), NCI-H226, compound alone, 316.3 nM",49.3%
same,inhibition at 1 µM,"[5]; NCI-H226, read-out: Zah. (inhibition of cell proliferation), NCI-H226, compound alone, 1000 nM",59%
same,inhibition at 3.1625 µM,"[5]; NCI-H226, read-out: Zah. (inhibition of cell proliferation), NCI-H226, compound alone, 3162.5 nM",63.5%
same,inhibition at 10.0005 µM,"[5]; NCI-H226, read-out: Zah. (inhibition of cell proliferation), NCI-H226, compound alone, 10000.5 nM",61.4%
